Measurements reported in patent US20240246964A1 (Arbutus Biopharma Corporation, priority 2021, published 2024).

How the values were obtained:
[1] = target: PD-L1 His protein / PD-1 Fc protein (Homo sapiens (Human), UniProt Q9NZQ7); assay: HTRF Assay (PD-1/PD-L1 interaction); assay type: binding; conditions: PD-L1 His 6 nM, PD-1 Fc 6 nM
human PD-L1 = human PD-L1 (Homo sapiens (Human), UniProt Q9NZQ7); assay: T cell activation luciferase reporter cell culture system (T Cell Activation Assay); assay type: cell-based; conditions: luciferase reporter assay; PD-L1 aAPC/CHO-K1 cells with PD-1 effector Jurkat T cells
Chain of human PD-L1 (Q9NZQ7 19-290): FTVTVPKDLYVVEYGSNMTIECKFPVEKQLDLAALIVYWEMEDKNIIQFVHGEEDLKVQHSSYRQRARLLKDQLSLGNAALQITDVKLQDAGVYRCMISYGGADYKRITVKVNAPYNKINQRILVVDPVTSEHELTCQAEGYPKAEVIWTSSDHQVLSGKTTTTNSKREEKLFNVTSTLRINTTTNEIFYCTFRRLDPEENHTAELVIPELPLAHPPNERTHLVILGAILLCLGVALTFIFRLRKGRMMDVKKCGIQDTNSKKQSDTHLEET

Chain of PD-L1 His protein / PD-1 Fc protein (Q9NZQ7 19-238): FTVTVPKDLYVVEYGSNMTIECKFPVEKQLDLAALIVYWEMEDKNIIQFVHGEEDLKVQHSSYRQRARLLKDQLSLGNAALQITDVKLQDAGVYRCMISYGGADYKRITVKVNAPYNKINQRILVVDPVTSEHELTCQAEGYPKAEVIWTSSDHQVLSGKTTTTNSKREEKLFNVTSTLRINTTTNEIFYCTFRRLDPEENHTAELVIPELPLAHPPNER

SMILES | IC50 [1] [nM] | EC50 (human PD-L1) [nM]
COc1cc(-c2nccc(-c3cccc4c3CC[C@@H]4Oc3nc(OC)c(CNC[C@@H]4CCC(=O)N4)cc3C(F)(F)F)c2Cl)ccc1CNC[C@@H]1CCC(=O)N1 [Example 269, (S)-5-((((6-(((S)-4-(3-chloro-2-(3-methoxy-4-(((((S)-5-oxopyrrolidin-2-yl)methyl)amino)methyl)phenyl)pyridin-4-yl)-2,3-dihydro-1H-inden-1-yl)oxy)-2-methoxy-5-(trifluoromethyl)pyridin-3-yl)methyl)amino)methyl)pyrrolidin-2-one] | 12.5 | 5.54
COc1cc(-c2nccc(-c3cccc(-c4ccc(CNC[C@H](C)O)c(OC)n4)c3Cl)c2Cl)cc2c1CN(CC(N)=O)CC2 [Example 275, (S)-2-(6-(3-Chloro-4-(2-chloro-3-(5-(((2-hydroxypropyl)amino)methyl)-6-methoxypyridin-2-yl)phenyl)pyridin-2-yl)-8-methoxy-3,4-dihydroisoquinolin-2(1H)-yl)acetamide] | 5.36 | ≥ 10000
CNCc1ccc(-c2cccc(-c3ccnc(-c4ccc5c(CNC)cn(C)c5c4)c3Cl)c2Cl)nc1OC [Example 276, 1-(6-(2-Chloro-3-(3-chloro-2-(1-methyl-3-((methylamino)methyl)-1H-indol-6-yl)pyridin-4-yl)phenyl)-2-methoxypyridin-3-yl)-N-methylmethanamine] | 1.04 | ≥ 10000
CNCc1ccc(-c2cccc(-c3ccnc(-c4ccc(CN5CC[C@H](C(=O)OC(C)C)C5)c(OC)c4)c3Cl)c2Cl)nc1OC [Example 278, Isopropyl (S)-1-(4-(3-chloro-4-(2-chloro-3-(6-methoxy-5-((methylamino)methyl)pyridin-2-yl)phenyl)pyridin-2-yl)-2-methoxybenzyl)pyrrolidine-3-carboxylate] | 404 | 258
CNCc1ccc(-c2cccc(-c3ccnc(-c4ccc(CNCCC(=O)OC(C)C)c(OC)c4)c3Cl)c2Cl)nc1OC [Example 279, Isopropyl 3-((4-(3-chloro-4-(2-chloro-3-(6-methoxy-5-((methylamino)methyl)pyridin-2-yl)phenyl)pyridin-2-yl)-2-methoxybenzyl)amino)propanoate] | 12.4 | 224
CNCc1ccc(-c2cccc(-c3ccnc(-c4ccc(CNC[C@@H](O)CC(=O)OC(C)C)c(OC)c4)c3Cl)c2Cl)nc1OC [Example 280, Isopropyl (S)-4-((4-(3-chloro-4-(2-chloro-3-(6-methoxy-5-((methylamino)methyl)pyridin-2-yl)phenyl)pyridin-2-yl)-2-methoxybenzyl)amino)-3-hydroxybutanoate] | 28.7 | 111
CNCc1ccc(-c2cccc(-c3ccnc(-c4ccc(CN5CC6(CC(C(=O)OC(C)C)C6)C5)c(OC)c4)c3Cl)c2Cl)nc1OC [Example 281, Isopropyl 2-(4-(3-chloro-4-(2-chloro-3-(6-methoxy-5-((methylamino)methyl)pyridin-2-yl)phenyl)pyridin-2-yl)-2-methoxybenzyl)-2-azaspiro[3.3]heptane-6-carboxylate] | 10.9 | 153
COc1nc(-c2cccc(-c3ccnc(-c4ccc(CNC5CCN(C(C)=O)CC5)c(F)c4)c3Cl)c2Cl)ccc1CNC1CCN(C(C)=O)CC1 [Example 282, 1-(4-(((6-(3-(2-(4-(((1-Acetylpiperidin-4-yl)amino)methyl)-3-fluorophenyl)-3-chloropyridin-4-yl)-2-chlorophenyl)-2-methoxypyridin-3-yl)methyl)amino)piperidin-1-yl)ethan-1-one] | 1.56 | 85.3
CNCc1ccc(-c2nccc(-c3cccc(-c4ccc(CNC)c(OC)n4)c3Cl)c2Cl)cc1F [Example 283, 1-(6-(2-Chloro-3-(3-chloro-2-(3-fluoro-4-((methylamino)methyl)phenyl)pyridin-4-yl)phenyl)-2-methoxypyridin-3-yl)-N-methylmethanamine] | 3.94 | 36.7
COc1nc(-c2cccc(-c3ccnc(-c4ccc(CN5CC6(CNC(=O)C6)C5)c(F)c4)c3Cl)c2Cl)ccc1CN1CC2(CNC(=O)C2)C1 [Example 284, 2-((6-(2-Chloro-3-(3-chloro-2-(3-fluoro-4-((7-oxo-2,6-diazaspiro[3.4]octan-2-yl)methyl)phenyl)pyridin-4-yl)phenyl)-2-methoxypyridin-3-yl)methyl)-2,6-diazaspiro[3.4]octan-7-one] | 2.81 | 62.4
COc1cc(-c2nccc(-c3cccc(-c4ccc(CNC5CCN(C(C)=O)CC5)c(OC)n4)c3Cl)c2Cl)cc(F)c1CNC1CCN(C(C)=O)CC1 [Example 285, 1-(4-(((6-(3-(2-(4-(((1-Acetylpiperidin-4-yl)amino)methyl)-3-fluoro-5-methoxyphenyl)-3-chloropyridin-4-yl)-2-chlorophenyl)-2-methoxypyridin-3-yl)methyl)amino)piperidin-1-yl)ethan-1-one] | 0.716 | 14.2
CNCc1ccc(-c2cccc(-c3ccnc(-c4cc(F)c(CNC)c(OC)c4)c3Cl)c2Cl)nc1OC [Example 286, 1-(6-(2-Chloro-3-(3-chloro-2-(3-fluoro-5-methoxy-4-((methylamino)methyl)phenyl)pyridin-4-yl)phenyl)-2-methoxypyridin-3-yl)-N-methylmethanamine] | 5.16 | 15.4
COc1cc(-c2nccc(-c3cccc(-c4ccc(CN5CC6(CNC(=O)C6)C5)c(OC)n4)c3Cl)c2Cl)cc(F)c1CN1CC2(CNC(=O)C2)C1 [Example 287, 2-((6-(2-Chloro-3-(3-chloro-2-(3-fluoro-5-methoxy-4-((7-oxo-2,6-diazaspiro[3.4]octan-2-yl)methyl)phenyl)pyridin-4-yl)phenyl)-2-methoxypyridin-3-yl)methyl)-2,6-diazaspiro[3.4]octan-7-one] | 4.67 | 16.4
COc1nc(-c2cccc(-c3ccnc(-c4ccc5c(CN6CC7(CNC(=O)C7)C6)nn(C)c5c4)c3Cl)c2Cl)ccc1CNC[C@@H]1CCC(=O)N1 [Example 288, (S)-2-((6-(3-Chloro-4-(2-chloro-3-(6-methoxy-5-((((5-oxopyrrolidin-2-yl)methyl)amino)methyl)pyridin-2-yl)phenyl)pyridin-2-yl)-1-methyl-1H-indazol-3-yl)methyl)-2,6-diazaspiro[3.4]octan-7-one] | 2.33 | 52.7
COc1nc(-c2cccc(-c3ccnc(-c4cc(Cl)c5c(c4)CCN(CC4CCN(C(C)=O)CC4)C5)c3Cl)c2Cl)ccc1CNC[C@@H]1CCC(=O)N1 [Example 289, (S)-5-((((6-(3-(2-(2-((1-Acetylpiperidin-4-yl)methyl)-8-chloro-1,2,3,4-tetrahydroisoquinolin-6-yl)-3-chloropyridin-4-yl)-2-chlorophenyl)-2-methoxypyridin-3-yl)methyl)amino)methyl)pyrrolidin-2-one] | 2.95 | 87.6
COc1cc(-c2nccc(-c3cccc(-c4cc5c(cn4)C(=O)N(CCNC[C@@H]4CCC(=O)N4)C5)c3Cl)c2Cl)ccc1CNC[C@@H]1CCC(=O)N1 [Example 290, 6-(2-Chloro-3-(3-chloro-2-(3-methoxy-4-(((((S)-5-oxopyrrolidin-2-yl)methyl)amino)methyl)phenyl)pyridin-4-yl)phenyl)-2-(2-((((S)-5-oxopyrrolidin-2-yl)methyl)amino)ethyl)-1,2-dihydro-3H-pyrrolo[3,4-c]pyridin-3-one] | 3.03 | 551
COc1cc(-c2nccc(-c3cccc(-c4cn5cc(CNC[C@@H]6CCC(=O)N6)nc5cn4)c3Cl)c2Cl)ccc1CNC[C@@H]1CCC(=O)N1 [Example 291, (S)-5-((((6-(2-Chloro-3-(3-chloro-2-(3-methoxy-4-(((((S)-5-oxopyrrolidin-2-yl)methyl)amino)methyl)phenyl)pyridin-4-yl)phenyl)imidazo[1,2-a]pyrazin-2-yl)methyl)amino)methyl)pyrrolidin-2-one] | 1.41 | 376
COc1cc(-c2nccc(-c3cccc4c3CC[C@@H]4Oc3nc(OC)c(CN4CC5(CNC(=O)C5)C4)cc3C(F)(F)F)c2Cl)ccc1CN1CC2(CNC(=O)C2)C1 [Example 292, (S)-2-(4-(3-chloro-4-(1-((6-methoxy-5-((7-oxo-2,6-diazaspiro[3.4]octan-2-yl)methyl)-3-(trifluoromethyl)pyridin-2-yl)oxy)-2,3-dihydro-1H-inden-4-yl)pyridin-2-yl)-2-methoxybenzyl)-2,6-diazaspiro[3.4]octan-7-one] | 4.4 | 388
COc1cc(-c2nccc(-c3cccc(-c4ccc(CNC[C@H](C)O)c(OC)n4)c3Cl)c2Cl)cc2c1CN(CCC(=O)O)CC2 [Example 293, (S)-3-(6-(3-Chloro-4-(2-chloro-3-(5-(((2-hydroxypropyl)amino)methyl)-6-methoxypyridin-2-yl)phenyl)pyridin-2-yl)-8-methoxy-3,4-dihydroisoquinolin-2(1H)-yl)propanoic acid] | 0.27 | 60.5
COc1cc(-c2nccc(-c3cccc(-c4ccc(CN5CC6(CNC(=O)C6)C5)c(OC)n4)c3Cl)c2Cl)cc2c1CN(CCC(=O)O)CC2 [Example 294, 3-(6-(3-Chloro-4-(2-chloro-3-(6-methoxy-5-((7-oxo-2,6-diazaspiro[3.4]octan-2-yl)methyl)pyridin-2-yl)phenyl)pyridin-2-yl)-8-methoxy-3,4-dihydroisoquinolin-2(1H)-yl)propanoic acid] | 0.24 | 73.9
COC(=O)C1(CN2CCc3cc(-c4nccc(-c5cccc(-c6ccc(CN7CC8(CNC(=O)C8)C7)c(OC)n6)c5Cl)c4Cl)cc(OC)c3C2)CC1 [Example 295, Methyl 1-((6-(3-chloro-4-(2-chloro-3-(6-methoxy-5-((7-oxo-2,6-diazaspiro [3.4]octan-2-yl)methyl)pyridin-2-yl)phenyl)pyridin-2-yl)-8-methoxy-3,4-dihydroisoquinolin-2(1H)-yl)methyl)cyclopropane-1-carboxylate] | 2.1 | 233
